Experimental findings from ChEMBL document CHEMBL6071164, “9,10-Bis[(4-(2-hydroxyethyl)piperazine-1-yl)prop2-yne-1-yl]anthracene: G-Quadruplex Selectivity and Anticancer Activity” (ACS Med Chem Lett, 2024) are described below.

Molecules are shown by their SMILES. Activity calls are given as the source filed them. No cut-off for these calls is given here.

Series [1] concerns Quadruplex DNA. The series can be described thus: Binding affinity to wildtype Tel26 G4 DNA (5'-TTAGGGTTAGGGTTAGGGTTAGGGTT-3') (unknown origin) at 10:1 compound:DNA ratio incubated for 30 mins by ESI-MS analysis. The class given is nucleic-acid assay.
Series [2] can be described thus: Cytotoxicity against human BEAS-2B cells assessed as reduction in cell viability incubated for 24 hrs by MTT assay. The class given is toxicity, cell-based.
The next series relates to NCI-H358. As to the kind of experiment: Cytotoxicity against human NCI-H358 cells assessed as reduction in cell viability incubated for 24 hrs by MTT assay. It is filed as functional, cell-based. The settings on record: NCI-H358, 24 h.
The test system of series [3] is Quadruplex DNA. The series can be described thus: Binding affinity to Tel23 G4 DNA (unknown origin) in PBS at pH 7.1 at 1.5 mM by wLOGSY analysis. The class given is nucleic-acid assay.
Another series relates to NCI-H1650. As to the kind of experiment: Cytotoxicity against human NCI-H1650 cells assessed as reduction in cell viability incubated for 24 hrs by MTT assay. Conditions: NCI-H1650, 24 h. It is filed as functional, cell-based.
Another series has as its system NCI-H460. The series can be described thus: Cytotoxicity against human NCI-H460 cells assessed as reduction in cell viability incubated for 24 hrs by MTT assay. The class given is functional, cell-based. Conditions: NCI-H460, 24 h.
In a further series the test system is PC-9. As to the kind of experiment: Cytotoxicity against human PC-9 cells assessed as reduction in cell viability incubated for 24 hrs by MTT assay. The class given is functional, cell-based. Conditions: PC-9, 24 h.
The test system of the next series is A549. The series can be described thus: Cytotoxicity against human A549 cells assessed as reduction in cell viability incubated for 24 hrs by MTT assay. The class given is functional, cell-based. The settings on record: A549, 24 h.
The test system of another series is NCI-H1975. The series can be described thus: Cytotoxicity against human NCI-H1975 cells assessed as reduction in cell viability incubated for 24 hrs by MTT assay. The class given is functional, cell-based. Conditions: NCI-H1975, 24 h.

As to `OCCN1CCN(CC#Cc2c3ccccc3c(C#CCN3CCN(CCO)CC3)c3ccccc23)CC1`, the result in the series with Quadruplex DNA [1] and in the series with Quadruplex DNA [3] was Active. Further, in series [2], the IC50 at 24 h is 1.07 µM. In addition, the half-maximal inhibitory concentration (IC50) was 6.21 µM with NCI-H358; greater than 10 µM in the series on NCI-H1650; 1.91 µM in the series on NCI-H460; 2.5 µM in the series on PC-9; 5.2 µM in the series with A549; 3.22 µM with NCI-H1975.
